Measurements: US9932338B2, “Compounds having muscarinic receptor antagonist and BETA2 adrenergic receptor agonist activity” (CHIESI FARMACEUTICI S.P.A., priority 2015, dated 2018)

What was measured:
Human M3 receptor = biological target: T1, Human M3 receptor (Homo sapiens, UniProt P20309); assay: M3 receptor radioligand binding assay; conditions: human M3 receptor membranes, [N-methyl-3H] scopolamine methyl chloride; Ki from IC50 by Cheng and Prusoff; read-out: M3 binding affinity (Ki class)
T1 construct: purchased Perkin Elmer
T1 sequence (P20309 whole entry): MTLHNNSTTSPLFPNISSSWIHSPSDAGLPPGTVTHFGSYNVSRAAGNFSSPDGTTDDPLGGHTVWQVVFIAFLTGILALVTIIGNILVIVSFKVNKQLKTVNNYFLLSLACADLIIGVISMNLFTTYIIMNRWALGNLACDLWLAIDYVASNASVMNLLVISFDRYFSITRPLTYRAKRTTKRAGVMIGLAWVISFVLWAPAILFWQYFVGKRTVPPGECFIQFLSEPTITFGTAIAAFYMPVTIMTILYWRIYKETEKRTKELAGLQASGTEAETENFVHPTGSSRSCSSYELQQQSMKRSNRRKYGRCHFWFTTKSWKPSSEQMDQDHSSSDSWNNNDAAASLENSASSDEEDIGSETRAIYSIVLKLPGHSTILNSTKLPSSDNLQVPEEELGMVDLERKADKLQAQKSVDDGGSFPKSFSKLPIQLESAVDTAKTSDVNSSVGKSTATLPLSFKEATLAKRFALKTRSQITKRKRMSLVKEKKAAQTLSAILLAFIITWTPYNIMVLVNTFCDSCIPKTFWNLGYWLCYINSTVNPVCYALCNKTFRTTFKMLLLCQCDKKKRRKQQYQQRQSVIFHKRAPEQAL
Method: Example. M3 Receptor Radioligand Binding Assay
The assay was carried out in 96-well polypropylene plates in a volume of 250 ul. […] The final assay concentration of DMSO was 0.5% (v/v). The plates were sealed and incubated for 2 hours at room temperature on an orbital shaker (slow speed). Membranes were harvested onto 96-well unifilter GF/C filter plates pre-treated with 0.5% polyethyleneimine (v/v), using a filter manifold, washed four times with 200 μl of assay buffer. The plates were dried before addition of 50 μl of microscint-0, sealed then read in a Trilux Microbeta scintillation counter. IC50 values are determined from competition curves using a non-linear curve fitting program. Ki values were calculated from IC50 values by the Cheng and Prusoff equation.

Human β2 adrenoceptor = biological target: T2, Human β2 adrenoceptor (Homo sapiens, UniProt P07550); assay: β2 adrenoceptor radioligand binding assay; conditions: human β2 adrenoceptor membranes, 125-I cyanopindolol; Ki from IC50 by Cheng and Prusoff; read-out: B2 binding affinity (Ki class)
T2 construct: purchased Perkin Elmer
T2 sequence (P07550 whole entry): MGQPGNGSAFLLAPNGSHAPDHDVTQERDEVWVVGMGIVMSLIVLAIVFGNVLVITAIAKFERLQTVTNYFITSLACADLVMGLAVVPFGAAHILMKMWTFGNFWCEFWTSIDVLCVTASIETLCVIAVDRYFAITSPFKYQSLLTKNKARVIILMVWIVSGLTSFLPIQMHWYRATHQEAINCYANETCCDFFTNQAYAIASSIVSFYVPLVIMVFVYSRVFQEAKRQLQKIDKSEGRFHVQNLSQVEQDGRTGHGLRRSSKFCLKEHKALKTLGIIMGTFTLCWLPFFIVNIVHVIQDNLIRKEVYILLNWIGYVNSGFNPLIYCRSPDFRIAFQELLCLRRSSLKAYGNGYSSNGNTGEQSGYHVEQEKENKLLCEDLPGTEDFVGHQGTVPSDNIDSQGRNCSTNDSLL
Method: Example. β2 Adrenoceptor Radioligand Binding Assay
Human β2 adrenoceptor membranes (7.5 ug/well) from Perkin Elmer were incubated with 0.3 nM 125-I Cyanopindolol with or without test compounds, or a saturating concentration of s-propranolol (2 μM) for the determination of non-specific binding. The assay was carried out in 96-well polypropylene plates in a volume of 200 ul. The assay buffer used was 25 mM HEPES, 0.5% BSA (w/v), 1 mM EDTA, 0.02% ascorbic acid (v/v), (pH 7.4). The final assay concentration of DMSO was 0.5% (v/v). The plates were sealed and incubated for 1 hour at room temperature on an orbital shaker (slow speed). Membranes were harvested onto 96-well unifilter GF/C filter plates pre-treated with 0.5% polyethyleneimine (v/v), using a filter manifold, washed six times with 200 μl of wash buffer containing 10 mM HEPES and 500 mM NaCl. The plates were dried before addition of 50 μl of microscint-0, sealed then read in a Trilux Microbeta scintillation counter. IC50 values are determined from competition curves using a non-linear curve fitting program. Ki values were calculated from IC50 values by the Cheng and Prusoff equation.

Compound: O=C(NC1(C(=O)O[C@H]2CN3CCC2CC3)CCc2ccccc21)c1cccc(OCCCCNC[C@H](O)c2ccc(O)c3[nH]c(=O)ccc23)c1 (stereo partly drawn) [Compound 6, (R)-quinuclidin-3-yl 1-(3-(4-(((R)-2-hydroxy-2-(8-hydroxy-2-oxo-1,2-dihydroquinolin-5-yl)ethyl)amino)butoxy)benzamido)-2,3-dihydro-1H-indene-1-carboxylate]
- Ki (Human M3 receptor): < 1 nM
- Ki (Human β2 adrenoceptor): 1 to 10 nM

Compound: Cc1cccc2c1CCC2(NC(=O)c1cccc(OCCCCCNC[C@H](O)c2ccc(O)c3[nH]c(=O)ccc23)c1)C(=O)O[C@H]1CN2CCC1CC2 (single isomer, unassigned; diastereoisomer 2) [Compound 5B]
- Ki (Human M3 receptor): < 1 nM
- Ki (Human β2 adrenoceptor): < 1 nM

Compound: O=C(NCCCCNC[C@H](O)c1ccc(O)c2[nH]c(=O)ccc12)c1ccc(CNC2(C(=O)OCC3CCN(Cc4ccccc4)CC3)CCc3ccccc32)s1 (single isomer, unassigned; stereoisomer 1) [Compound 22]
- Ki (Human M3 receptor): < 1 nM
- Ki (Human β2 adrenoceptor): 1 to 10 nM

Compound: Cc1cccc2c1CCC2(NC(=O)c1cccc(OCCCCCNC[C@H](O)c2ccc(O)c3[nH]c(=O)ccc23)c1)C(=O)O[C@H]1CN2CCC1CC2 (single isomer, unassigned; diastereoisomer 1) [Compound 5A]
- Ki (Human M3 receptor): 1 to 10 nM
- Ki (Human β2 adrenoceptor): 1 to 10 nM

Compound: O=C(NCCCCNC[C@H](O)c1ccc(O)c2[nH]c(=O)ccc12)c1ccc(CNC2(C(=O)OC3CCN(Cc4ccccc4)CC3)CCc3ccccc32)s1 (single isomer, unassigned; stereoisomer 2) [Compound 27]
- Ki (Human M3 receptor): < 1 nM
- Ki (Human β2 adrenoceptor): > 10 nM

Compound: CC(C)N1CCC(COC(=O)C2(NC(=O)c3cccc(OCCCCCCNC[C@H](O)c4ccc(O)c5[nH]c(=O)ccc45)c3)CCc3ccccc32)CC1 (stereo partly drawn) [Compound 7, (1-isopropylpiperidin-4-yl)methyl 1-(3-((6-(((R)-2-hydroxy-2-(8-hydroxy-2-oxo-1,2-dihydroquinolin-5-yl)ethyl)amino)hexyl)oxy)benzamido)-2,3-dihydro-1H-indene-1-carboxylate]
- Ki (Human M3 receptor): < 1 nM
- Ki (Human β2 adrenoceptor): > 10 nM

Compound: O=C(NCCCCNC[C@H](O)c1ccc(O)c2[nH]c(=O)ccc12)c1ccc(CNC2(C(=O)OCC3CCN(Cc4ccccc4)CC3)CCc3ccccc32)s1 (stereo partly drawn) [Compound 16, (1-benzylpiperidin-4-yl)methyl 1-(((5-((4-(((R)-2-hydroxy-2-(8-hydroxy-2-oxo-1,2-dihydroquinolin-5-yl)ethyl)amino)butyl)carbamoyl)thiophen-2-yl)methyl)amino)-2,3-dihydro-1H-indene-1-carboxylate]
- Ki (Human M3 receptor): < 1 nM
- Ki (Human β2 adrenoceptor): 1 to 10 nM

Compound: O=C(NC1(C(=O)OCC2CCN(Cc3ccco3)CC2)CCc2ccccc21)c1cccc(OCCCCCCNC[C@H](O)c2ccc(O)c3[nH]c(=O)ccc23)c1 (stereo partly drawn) [Compound 10, (1-(furan-2-ylmethyl)piperidin-4-yl)methyl 1-(3-((6-(((R)-2-hydroxy-2-(8-hydroxy-2-oxo-1,2-dihydroquinolin-5-yl)ethyl)amino)hexyl)oxy)benzamido)-2,3-dihydro-1H-indene-1-carboxylate]
- Ki (Human M3 receptor): 1 to 10 nM
- Ki (Human β2 adrenoceptor): > 10 nM

Compound: O=C(O[C@H]1CN2CCC1CC2)C1(NCc2cccc(OCCCCCNC[C@H](O)c3ccc(O)c4[nH]c(=O)ccc34)c2)CCc2ccccc21 (stereo partly drawn) [Compound 3, (R)-quinuclidin-3-yl 1-((3-((5-(((R)-2-hydroxy-2-(8-hydroxy-2-oxo-1,2-dihydroquinolin-5-yl)ethyl)amino)pentyl)oxy)benzyl)amino)-2,3-dihydro-1H-indene-1-carboxylate]
- Ki (Human M3 receptor): < 1 nM
- Ki (Human β2 adrenoceptor): < 1 nM

Compound: O=C(NCCCCNC[C@H](O)c1ccc(O)c2[nH]c(=O)ccc12)c1ccc(CNC2(C(=O)OCC3CCN(Cc4cccc(O)c4)CC3)CCc3ccccc32)s1 (stereo partly drawn) [Compound 15, (1-(3-hydroxybenzyl)piperidin-4-yl)methyl 1-(((5-((4-(((R)-2-hydroxy-2-(8-hydroxy-2-oxo-1,2-dihydroquinolin-5-yl)ethyl)amino)butyl)carbamoyl)thiophen-2-yl)methyl)amino)-2,3-dihydro-1H-indene-1-carboxylate]
- Ki (Human M3 receptor): < 1 nM
- Ki (Human β2 adrenoceptor): 1 to 10 nM

Compound: O=C(NC1(C(=O)O[C@H]2CN3CCC2CC3)CCc2ccccc21)c1cccc(COCCCCNC[C@H](O)c2ccc(O)c3[nH]c(=O)ccc23)c1 (stereo partly drawn) [Compound 12, (R)-quinuclidin-3-yl 1-(3-((4-(((R)-2-hydroxy-2-(8-hydroxy-2-oxo-1,2-dihydroquinolin-5-yl)ethyl)amino)butoxy)methyl)benzamido)-2,3-dihydro-1H-indene-1-carboxylate]
- Ki (Human M3 receptor): 1 to 10 nM
- Ki (Human β2 adrenoceptor): > 10 nM

Compound: O=C(NCCCCNC[C@H](O)c1ccc(O)c2[nH]c(=O)ccc12)c1ccc(CNC2(C(=O)O[C@H]3CN4CCC3CC4)CCc3ccccc32)s1 (stereo partly drawn) [Compound 4, (R)-quinuclidin-3-yl 1-(((5-((4-(((R)-2-hydroxy-2-(8-hydroxy-2-oxo-1,2-dihydroquinolin-5-yl)ethyl)amino)butyl)carbamoyl)thiophen-2-yl)methyl)amino)-2,3-dihydro-1H-indene-1-carboxylate]
- Ki (Human M3 receptor): < 1 nM
- Ki (Human β2 adrenoceptor): < 1 nM

Compound: O=C(NCCCCNC[C@H](O)c1ccc(O)c2[nH]c(=O)ccc12)c1ccc(CNC2(C(=O)O[C@@H]3CCCN(Cc4ccccc4)C3)CCc3ccccc32)s1 (single isomer, unassigned; stereoisomer 1) [Compound 25]
- Ki (Human M3 receptor): < 1 nM
- Ki (Human β2 adrenoceptor): > 10 nM

Compound: O=C(NC1(C(=O)O[C@H]2CN3CCC2CC3)CCc2ccccc21)c1ccc(OCc2ccc(CNC[C@H](O)c3ccc(O)c4[nH]c(=O)ccc34)cc2)cc1 (stereo partly drawn) [Compound 19, (R)-quinuclidin-3-yl 1-(4-((4-((((R)-2-hydroxy-2-(8-hydroxy-2-oxo-1,2-dihydroquinolin-5-yl)ethyl)amino)methyl)benzyl)oxy)benzamido)-2,3-dihydro-1H-indene-1-carboxylate]
- Ki (Human M3 receptor): 1 to 10 nM
- Ki (Human β2 adrenoceptor): > 10 nM

Compound: O=C(O[C@H]1CN2CCC1CC2)C1(NCc2cccc(OCc3ccc(CNC[C@H](O)c4ccc(O)c5[nH]c(=O)ccc45)cc3)c2)CCc2ccccc21 (stereo partly drawn) [Compound 20, (R)-quinuclidin-3-yl 1-((3-((4-((((R)-2-hydroxy-2-(8-hydroxy-2-oxo-1,2-dihydroquinolin-5-yl)ethyl)amino)methyl)benzyl)oxy)benzyl)amino)-2,3-dihydro-1H-indene-1-carboxylate]
- Ki (Human M3 receptor): 1 to 10 nM
- Ki (Human β2 adrenoceptor): < 1 nM

Compound: O=C(NCCCCNC[C@H](O)c1ccc(O)c2[nH]c(=O)ccc12)c1ccc(CNC2(C(=O)OCC3CCN(Cc4cccs4)CC3)CCc3ccccc32)s1 (stereo partly drawn) [Compound 17, (1-(thiophen-2-ylmethyl)piperidin-4-yl)methyl 1-(((5-((4-(((R)-2-hydroxy-2-(8-hydroxy-2-oxo-1,2-dihydroquinolin-5-yl)ethyl)amino)butyl)carbamoyl)thiophen-2-yl)methyl)amino)-2,3-dihydro-1H-indene-1-carboxylate]
- Ki (Human M3 receptor): < 1 nM
- Ki (Human β2 adrenoceptor): > 10 nM

Compound: O=C(Cc1ccc(CC(=O)NC2(C(=O)O[C@H]3CN4CCC3CC4)CCc3ccccc32)cc1)Nc1ccc(CNC[C@H](O)c2ccc(O)c3[nH]c(=O)ccc23)cc1 (stereo partly drawn) [Compound 18, (R)-quinuclidin-3-yl 1-(2-(4-(2-((4-((((R)-2-hydroxy-2-(8-hydroxy-2-oxo-1,2-dihydroquinolin-5-yl)ethyl)amino)methyl)phenyl)amino)-2-oxoethyl)phenyl)acetamido)-2,3-dihydro-1H-indene-1-carboxylate]
- Ki (Human M3 receptor): 1 to 10 nM
- Ki (Human β2 adrenoceptor): > 10 nM

Compound: O=C(NCCCCNC[C@H](O)c1ccc(O)c2[nH]c(=O)ccc12)c1ccc(CNC2(C(=O)OC3CCN(Cc4ccccc4)CC3)CCc3ccccc32)s1 (single isomer, unassigned; stereoisomer 1) [Compound 24]
- Ki (Human M3 receptor): < 1 nM
- Ki (Human β2 adrenoceptor): > 10 nM

Compound: O=C(O[C@H]1CN2CCC1CC2)C1(NCc2cccc(OCc3cccc(OCCCCNC[C@H](O)c4ccc(O)c5[nH]c(=O)ccc45)c3)c2)CCc2ccccc21 (stereo partly drawn) [Compound 21, (R)-quinuclidin-3-yl 1-((3-((3-(4-(((R)-2-hydroxy-2-(8-hydroxy-2-oxo-1,2-dihydroquinolin-5-yl)ethyl)amino)butoxy)benzyl)oxy)benzyl)amino)-2,3-dihydro-1H-indene-1-carboxylate]
- Ki (Human M3 receptor): < 1 nM
- Ki (Human β2 adrenoceptor): < 1 nM

Compound: O=C(NC1(C(=O)O[C@H]2CN3CCC2CC3)Cc2ccccc2C1)c1cccc(OCCCCCNC[C@H](O)c2ccc(O)c3[nH]c(=O)ccc23)c1 [Compound 13, (R)-quinuclidin-3-yl 2-(3-((5-(((R)-2-hydroxy-2-(8-hydroxy-2-oxo-1,2-dihydroquinolin-5-yl)ethyl)amino)pentyl)oxy)benzamido)-2,3-dihydro-1H-indene-2-carboxylate]
- Ki (Human M3 receptor): < 1 nM
- Ki (Human β2 adrenoceptor): 1 to 10 nM

Compound: O=C(NCCCCNC[C@H](O)c1ccc(O)c2[nH]c(=O)ccc12)c1ccc(CNC2(C(=O)O[C@@H]3CCN(Cc4ccccc4)C3)CCc3ccccc32)s1 (single isomer, unassigned; stereoisomer 2) [Compound 28]
- Ki (Human M3 receptor): < 1 nM
- Ki (Human β2 adrenoceptor): 1 to 10 nM
